# Reference: BindingDB's records for doi:10.7270/Q2PZ576Z (The Scripps Research Institute Molecular Screening Center, 2007)
# Biological target: Sphingosine 1-phosphate receptor 3 (Homo sapiens, UniProt Q99500)
# Assay: S1P3 receptor activation, EC50 – cell-based, NFAT-BLA reporter, dose response (AID 439)
# Details: not given
# Sphingosine 1-phosphate receptor 3, sequence (Q99500 whole entry): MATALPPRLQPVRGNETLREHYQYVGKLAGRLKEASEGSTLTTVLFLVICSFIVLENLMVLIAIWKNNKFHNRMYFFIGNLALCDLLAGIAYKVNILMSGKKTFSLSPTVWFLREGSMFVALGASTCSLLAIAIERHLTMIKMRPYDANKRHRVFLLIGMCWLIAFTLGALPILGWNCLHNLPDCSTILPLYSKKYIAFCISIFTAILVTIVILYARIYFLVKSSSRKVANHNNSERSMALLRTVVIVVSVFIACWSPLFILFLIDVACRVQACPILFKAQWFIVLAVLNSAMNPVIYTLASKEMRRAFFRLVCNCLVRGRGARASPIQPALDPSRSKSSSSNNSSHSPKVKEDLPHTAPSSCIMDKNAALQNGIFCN
row,SMILES,EC50 [µM]
1,Clc1ccc2nc(N3CCNCC3)nc(-c3ccccc3)c2c1,> 45
2,CC(=O)Oc1ccc2cc(-c3nc4ccccc4n3C)c(=O)oc2c1,6.42
3,Cc1cc(NC(=O)NC(=O)c2cccc(OC(F)(F)C(F)F)c2)[nH]n1,> 45
4,"CCCSc1nc(N2CCOCC2)c2c(c1C#N)CCCC2 [1-(4-morpholinyl)-3-(propylthio)-5,6,7,8-tetrahydroisoquinoline-4-carbonitrile]",4.34
5,"Cc1cc(C)n(-c2nc(NCC(C)O)c3c4c(sc3n2)CCCC4)n1 (stereo not drawn) [1-[[2-(3,5-dimethyl-1-pyrazolyl)-5,6,7,8-tetrahydro-[1]benzothiolo[2,3-d]pyrimidin-4-yl]amino]-2-propanol]",7.79
6,"O=C(OCCN1C(=O)c2ccccc2C1=O)c1cccc(OC(F)F)c1 [2-(1,3-dioxoisoindol-2-yl)ethyl 3-(difluoromethoxy)benzoate]",> 45
7,"Cc1cc(C)nc(-n2nc(C)c(Sc3ccc(F)cc3)c2N)n1 [2-(4,6-dimethyl-2-pyrimidinyl)-4-[(4-fluorophenyl)thio]-5-methyl-3-pyrazolamine]",2.34
8,"CC(C)n1c(=N)c(C(=O)NCCc2ccccc2)cc2c(=O)n3ccccc3nc21 [2-Imino-1-isopropyl-10-oxo-1,10-dihydro-2H-1,9,10a-triaza-anthracene-3-carboxylic acid phenethyl-amide]",> 45
9,"CCCCC(=O)NC(Nc1nc(C2CC2)cs1)(C(=O)OCC)C(F)(F)F (stereo not drawn) [2-[(4-cyclopropyl-2-thiazolyl)amino]-3,3,3-trifluoro-2-(1-oxopentylamino)propanoic acid ethyl ester]",9.87
10,"CCC(C)NC(=O)c1c(N)n(Cc2ccc3c(c2)OCO3)c2nc3ccccc3nc12 (stereo not drawn) [2-amino-1-(1,3-benzodioxol-5-ylmethyl)-N-butan-2-ylpyrrolo[3,2-b]quinoxaline-3-carboxamide]",7.93
11,"Nc1c(C(=O)NCc2ccco2)c2nc3ccccc3nc2n1CCN1CCCCC1 [2-amino-N-(2-furanylmethyl)-1-[2-(1-piperidinyl)ethyl]-3-pyrrolo[3,2-b]quinoxalinecarboxamide]",> 45

# Further lines, results first:
row,EC50 [µM],SMILES
1,18.5,"CCOC(=O)C1C(=N)OC2=C(C(=O)CCC2)C1c1ccccc1OCC (stereo not drawn) [2-amino-4-(2-ethoxyphenyl)-5-oxo-4,6,7,8-tetrahydro-1-benzopyran-3-carboxylic acid ethyl ester]"
2,> 45,Cc1ccc(-c2cc(-c3ccc(Cl)cc3)c(C#N)c(N)n2)o1 [2-azanyl-4-(4-chlorophenyl)-6-(5-methylfuran-2-yl)pyridine-3-carbonitrile]
3,> 45,Cc1nc(-c2ccccc2)cc(N2CCCC2)n1 [2-methyl-4-phenyl-6-(1-pyrrolidinyl)pyrimidine]
4,4.28,"Cc1cc(C)n(-c2nc(NCCCO)c3c4c(sc3n2)CCCC4)n1 [3-[[2-(3,5-dimethyl-1-pyrazolyl)-5,6,7,8-tetrahydro-[1]benzothiolo[2,3-d]pyrimidin-4-yl]amino]-1-propanol]"
5,6.63,"c1ccc(-c2nnc(N3CCOCC3)nc2-c2ccccc2)cc1 [4-(5,6-diphenyl-1,2,4-triazin-3-yl)morpholine]"
6,> 45,"CCOC(=O)N1CCN(C(=O)c2nn(-c3cc(OC)cc(OC)c3)c(=O)c3ccccc23)CC1 [4-[3-(3,5-dimethoxyphenyl)-4-keto-phthalazine-1-carbonyl]piperazine-1-carboxylic acid ethyl ester]"
7,5.24,"c1ccc(C(Cc2nc(-c3ccncc3)no2)c2ccccc2)cc1 [4-[5-(2,2-diphenylethyl)-1,2,4-oxadiazol-3-yl]pyridine]"
8,2.77,"CCOc1ccc(-c2nc(-c3ccncc3)no2)cc1OCC [4-[5-(3,4-diethoxyphenyl)-1,2,4-oxadiazol-3-yl]pyridine]"
9,> 45,CCCN(CCC)CCCNC(=O)CC1Nc2ccccc2NC1=O (stereo not drawn) [MLS000046817]
10,> 45,CCCCn1c(NC(=O)c2ccc(F)cc2)c(C#N)c2nc3ccccc3nc21 [MLS000055622]

# Same assay, conditions: inactive by the depositor's call
row,SMILES,EC50 [µM]
1,Cc1cc(-n2c(=O)c(C#N)cc3c(=O)n4ccccc4nc32)no1,26.4
2,O=C(NC1=NCCS1)c1cc(-c2ccccc2)nn1-c1ccccc1,41.7
3,"Cc1cccn2c(=O)c3cc(C(=O)NC(C)c4ccccc4)c(=N)n(CCCn4ccnc4)c3nc12 (stereo not drawn) [1-(3-imidazol-1-ylpropyl)-2-imino-10-methyl-5-oxo-N-(1-phenylethyl)dipyrido[3,4-c:1',2'-f]pyrimidine-3-carboxamide]",17.4
4,"COc1ccc(CCn2c(C)cc(C(=O)CSc3nnnn3C)c2C)cc1 [1-[1-[2-(4-methoxyphenyl)ethyl]-2,5-dimethyl-3-pyrrolyl]-2-[(1-methyl-5-tetrazolyl)thio]ethanone]",18.6
5,CC(Oc1ccccc1Br)C(=O)N1CCc2ccccc21 (stereo not drawn) [1-[2-(2-bromophenoxy)propanoyl]indoline],25.2
6,"Cc1cc(C)n(-c2nc(NCc3cccnc3)c3c4c(sc3n2)COC(C)(C)C4)n1 [2-(3,5-dimethyl-1-pyrazolyl)-6,6-dimethyl-N-(3-pyridinylmethyl)-5,8-dihydropyrano[4,5]thieno[1,2-c]pyrimidin-4-amine]",15.3
7,"COCCNc1nc(-n2nc(C)cc2C)nc2sc3c(c12)CCCC3 [2-(3,5-dimethyl-1-pyrazolyl)-N-(2-methoxyethyl)-5,6,7,8-tetrahydro-[1]benzothiolo[2,3-d]pyrimidin-4-amine]",13.3
8,"COc1ccc(Nc2nc(Nc3ccc(OC)cc3)nc(-n3[nH]c(=O)c(C)c3C)n2)cc1 [2-[4,6-bis(4-methoxyanilino)-1,3,5-triazin-2-yl]-3,4-dimethyl-1H-pyrazol-5-one]",14.7
9,OCCN1CCN(c2nc(-c3ccccc3)c3cc(Cl)ccc3n2)CC1 [2-[4-(6-chloranyl-4-phenyl-quinazolin-2-yl)piperazin-1-yl]ethanol],108
10,"N#CCSc1nnc(-c2ccccc2)c(-c2ccccc2)n1 [2-[(5,6-diphenyl-1,2,4-triazin-3-yl)sulfanyl]acetonitrile]",47.4
11,"Nc1c(C(=O)NCCc2ccccc2)c2nc3ccccc3nc2n1CCN1CCOCC1 [2-amino-1-(2-morpholin-4-ylethyl)-N-(2-phenylethyl)pyrrolo[3,2-b]quinoxaline-3-carboxamide]",37.5
12,"COc1ccc(CCn2c(N)c(C(=O)NCc3ccco3)c3nc4ccccc4nc32)cc1OC [2-amino-1-[2-(3,4-dimethoxyphenyl)ethyl]-N-(2-furanylmethyl)-3-pyrrolo[3,2-b]quinoxalinecarboxamide]",45
13,"CCCCCCn1c(N)c(C(=O)NCCN2CCOCC2)c2nc3ccccc3nc21 [2-amino-1-hexyl-N-(2-morpholin-4-ylethyl)pyrrolo[3,2-b]quinoxaline-3-carboxamide]",42.3
14,"COc1ccc(Cn2c(N)c(C(=O)NCc3ccco3)c3nc4ccccc4nc32)cc1 [2-amino-N-(2-furanylmethyl)-1-[(4-methoxyphenyl)methyl]-3-pyrrolo[3,2-b]quinoxalinecarboxamide]",19.8
15,"CC(C)OCCCNC(=O)c1c(N)n(Cc2cccs2)c2nc3ccccc3nc12 [2-amino-N-(3-propan-2-yloxypropyl)-1-(thiophen-2-ylmethyl)pyrrolo[3,2-b]quinoxaline-3-carboxamide]",22.2
16,"O=C(Oc1ccc(-c2nnco2)cc1)N(c1ccccc1)c1ccccc1 [4-(1,3,4-oxadiazol-2-yl)phenyl diphenylcarbamate]",14.1
17,COCCCn1c(N)c(C(=O)NCCC(C)C)c2nc3ccccc3nc21 [MLS000041744],31.4

# More lines, now with the values ahead:
row,EC50 [µM],SMILES
1,19.1,"Nc1c(C(=O)NCc2ccc3c(c2)OCO3)c2nc3ccccc3nc2n1CCCN1CCOCC1 [2-amino-N-(1,3-benzodioxol-5-ylmethyl)-1-(3-morpholin-4-ylpropyl)pyrrolo[3,2-b]quinoxaline-3-carboxamide]"
2,178,"Nc1c(C(=O)NCCN2CCOCC2)c2nc3ccccc3nc2n1CCc1ccccc1 [2-amino-N-[2-(4-morpholinyl)ethyl]-1-(2-phenylethyl)-3-pyrrolo[3,2-b]quinoxalinecarboxamide]"
3,11.6,"CCOc1ccc(-c2noc(-c3ccncc3)n2)cc1OCC [3-(3,4-diethoxyphenyl)-5-(4-pyridyl)-1,2,4-oxadiazole]"
4,14.5,"CCSc1nc(N2CCOCC2)c2c(c1C#N)CCCC2 [3-(ethylthio)-1-(4-morpholinyl)-5,6,7,8-tetrahydroisoquinoline-4-carbonitrile]"
5,29.5,"O=c1c2ccccc2nnn1CSc1nnc(C2COc3ccccc3O2)n1-c1ccccc1 (stereo not drawn) [3-[[5-(2,3-dihydro-1,4-benzodioxin-3-yl)-4-phenyl-1,2,4-triazol-3-yl]sulfanylmethyl]-1,2,3-benzotriazin-4-one]"
6,23.5,"CCCn1c(=O)c2ccccc2n2c(SCc3c(C(=O)OCC)oc4ccccc34)nnc12 [3-[[(5-keto-4-propyl-[1,2,4]triazolo[4,3-a]quinazolin-1-yl)thio]methyl]coumarilic acid ethyl ester]"
7,17.2,"COc1ccccc1Oc1cc(C#N)c(C#N)cc1-n1nnc2ccccc21 [4-(1-benzotriazolyl)-5-(2-methoxyphenoxy)benzene-1,2-dicarbonitrile]"
8,74.6,"Cc1ccc(C(C)C)c(OCc2nc(-c3nonc3N)no2)c1 [4-[5-[(5-methyl-2-propan-2-yl-phenoxy)methyl]-1,2,4-oxadiazol-3-yl]-1,2,5-oxadiazol-3-amine]"
9,41.6,"c1ccc(-c2nc3nonc3nc2-c2ccccc2)cc1 [5,6-diphenyl-[1,2,5]oxadiazolo[3,4-b]pyrazine]"
10,21.1,"c1ccc(C(Cc2nc(-c3ccccn3)no2)c2ccccc2)cc1 [5-(2,2-diphenylethyl)-3-(2-pyridinyl)-1,2,4-oxadiazole]"
11,13.5,"c1ccc(C(Cc2nc(-c3cccnc3)no2)c2ccccc2)cc1 [5-(2,2-diphenylethyl)-3-(3-pyridinyl)-1,2,4-oxadiazole]"
12,19.2,"CCOc1ccc(-c2nc(-c3ccccc3)no2)cc1OCC [5-(3,4-diethoxyphenyl)-3-phenyl-1,2,4-oxadiazole]"
13,31.2,"Cn1c(=O)c2c(-c3ccccc3)n(C3CCCCC3)cc2n(C)c1=O [6-cyclohexyl-1,3-dimethyl-5-phenyl-pyrrolo[3,4-d]pyrimidine-2,4-dione]"
14,38.5,"C/C(Cl)=C/Cn1c(N2CCCC2)nc2c1c(=O)n(C)c(=O)n2C [7-((Z)-3-Chloro-but-2-enyl)-1,3-dimethyl-8-pyrrolidin-1-yl-3,7-dihydro-purine-2,6-dione]"
15,17.7,O=C(NCc1ccco1)c1cc2ccc(O)cc2oc1=O [MLS000049147]
